Source: PubChem BioAssay (NCI)
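Values below derive from 48-hour exposures of cells grown in 96-well plates, with endpoints linearly interpolated between the two concentrations bracketing the appropriate inhibition level. GI50 marks 50% less growth. Definition used: TGI = concentration required for complete inhibition of growth.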

Columns and labels:
Assay in all cases: NCI anticancer screen, dose series, 48 h
[1] = tested on: HCT-15 colon
[2] = tested on: HT29 colon
[3] = tested on: U251 CNS
[4] = tested on: LOX IMVI melanoma
[5] = tested on: SF-539 CNS
[6] = tested on: HOP-62 NSCLC
[7] = tested on: SF-295 CNS
[8] = tested on: UO-31 renal
[9] = tested on: NCI-H226 lung
[10] = tested on: MOLT-4 leukemia
[11] = tested on: MDA-MB-435
[12] = tested on: OVCAR-5 ovarian
[13] = tested on: UACC-257 melanoma
[14] = tested on: K-562 leukemia
[15] = tested on: SNB-75 CNS
[16] = tested on: 786-0 renal
[17] = tested on: T-47D breast
[18] = tested on: SK-MEL-5 melanoma
[19] = tested on: NCI/ADR-RES ovarian
[20] = tested on: ACHN renal
[21] = tested on: SK-MEL-2 melanoma
[22] = tested on: CCRF-CEM leukemia
[23] = tested on: OVCAR-4 ovarian
[24] = tested on: KM12 colon
[25] = tested on: BT-549 breast
[26] = tested on: A549 NSCLC
[27] = tested on: MDA-MB-231 breast
[28] = tested on: HL-60(TB) leukemia
[29] = tested on: IGROV1 ovarian
[30] = tested on: HOP-92 NSCLC
[31] = tested on: SF-268 CNS
[32] = tested on: SW-620 colon
[33] = tested on: SNB-19 CNS
[34] = tested on: HCT-116 colon
[35] = tested on: CAKI-1 renal
[36] = tested on: COLO 205 colon
[37] = tested on: TK-10 renal
[38] = tested on: DU-145 prostate
[39] = tested on: SK-OV-3 ovarian
[40] = tested on: NCI-H460 lung
[41] = tested on: OVCAR-8 ovarian
[42] = tested on: MALME-3M melanoma
[43] = tested on: M14 melanoma
[44] = tested on: OVCAR-3 ovarian
[45] = tested on: HCC-2998 colon
[46] = tested on: A498 renal
[47] = tested on: RPMI-8226 leukemia
[48] = tested on: MCF7 breast
[49] = tested on: HS 578T breast
[50] = tested on: NCI-H522 lung
[51] = tested on: RXF 393 renal
[52] = tested on: SR leukemia
[53] = tested on: SK-MEL-28 melanoma
[54] = tested on: SN12C renal
[55] = tested on: PC-3 prostate
[56] = tested on: EKVX NSCLC
[57] = tested on: NCI-H23 lung
[58] = tested on: UACC-62 melanoma

For `Nc1c(C(=O)Nc2cccc(Cl)c2Cl)sc2nc3c(cc12)C(=O)CCC3`, the GI50 [1] was > 100 µM, the TGI [1] was > 100 µM and the GI50 [2] was > 100 µM. The TGI [2] was > 100 µM, the GI50 [3] was > 100 µM and the TGI [3] was > 100 µM. The GI50 [4] was > 100 µM, the TGI [4] was > 100 µM and the GI50 [5] was > 100 µM. For the same molecule, the TGI [5] was > 100 µM, the GI50 [6] was > 100 µM and the TGI [6] was > 100 µM. For the same molecule, the GI50 [7] was 0.476 µM, the TGI [7] was > 100 µM and the GI50 [8] was > 100 µM. The TGI [8] was > 100 µM, the GI50 [9] was > 100 µM and the TGI [9] was > 100 µM. The GI50 [10] was > 100 µM, the TGI [10] was > 100 µM and the GI50 [11] was 277 nM. For the same molecule, the TGI [11] was > 100 µM, the GI50 [12] was > 100 µM and the TGI [12] was > 100 µM. For the same molecule, the GI50 [13] was > 100 µM, the TGI [13] was > 100 µM and the GI50 [14] was 958 nM. The TGI [14] was > 100 µM, the GI50 [15] was > 100 µM and the TGI [15] was > 100 µM. The GI50 [16] was > 100 µM, the TGI [16] was > 100 µM and the GI50 [17] was > 100 µM. For the same molecule, the TGI [17] was > 100 µM, the GI50 [18] was 3.54 µM and the TGI [18] was > 100 µM. The GI50 [19] was > 100 µM, the TGI [19] was > 100 µM and the GI50 [20] was > 100 µM. The TGI [20] was > 100 µM, the TGI [21] was > 100 µM and the GI50 [22] was > 100 µM. For the same molecule, the TGI [22] was > 100 µM, the GI50 [23] was > 100 µM and the TGI [23] was > 100 µM. For the same molecule, the GI50 [24] was > 100 µM, the TGI [24] was > 100 µM and the GI50 [25] was > 100 µM. The TGI [25] was > 100 µM, the GI50 [26] was 0.866 µM and the TGI [26] was > 100 µM. For the same molecule, the GI50 [27] was > 100 µM, the TGI [27] was > 100 µM and the GI50 [28] was > 100 µM. The TGI [28] was > 100 µM, the GI50 [29] was > 100 µM and the TGI [29] was > 100 µM. For the same molecule, the GI50 [30] was > 100 µM, the TGI [30] was > 100 µM and the GI50 [31] was > 100 µM. The TGI [31] was > 100 µM, the GI50 [32] was 61.2 µM and the TGI [32] was > 100 µM. For the same molecule, the GI50 [33] was 4.64 µM, the TGI [33] was > 100 µM and the GI50 [34] was > 100 µM. For the same molecule, the TGI [34] was > 100 µM, the GI50 [35] was > 100 µM and the TGI [35] was > 100 µM. For the same molecule, the GI50 [36] was 1610 nM, the TGI [36] was > 100 µM and the GI50 [37] was > 100 µM. The TGI [37] was > 100 µM, the GI50 [38] was > 100 µM and the TGI [38] was > 100 µM. The GI50 [39] was 3.8 µM, the TGI [39] was > 100 µM and the GI50 [40] was 601 nM. The TGI [40] was > 100 µM, the GI50 [41] was > 100 µM and the TGI [41] was > 100 µM. For the same molecule, the GI50 [42] was > 100 µM, the TGI [42] was > 100 µM and the GI50 [43] was > 100 µM. The TGI [43] was > 100 µM, the GI50 [44] was > 100 µM and the TGI [44] was > 100 µM. The GI50 [45] was > 100 µM, the TGI [45] was > 100 µM and the GI50 [46] was 399 nM. For the same molecule, the TGI [46] was 9.33 µM, the GI50 [47] was > 100000 nM and the TGI [47] was > 100 µM. For the same molecule, the GI50 [48] was > 100 µM, the TGI [48] was > 100 µM and the GI50 [49] was > 100 µM. The TGI [49] was > 100 µM, the GI50 [50] was > 100 µM and the TGI [50] was > 100 µM. The GI50 [51] was > 100 µM, the TGI [51] was > 100 µM and the GI50 [52] was > 100 µM. For the same molecule, the TGI [52] was > 100 µM, the GI50 [53] was > 100 µM and the TGI [53] was > 100 µM. The GI50 [54] was > 100 µM and the TGI [54] was > 100 µM.

With `COc1cc(NC(=O)C2=C(N3CCOCC3)/C(=C/c3ccc(Cl)cc3)CC2)cc(OC)c1OC` the GI50 [1] was > 100 µM, the TGI [1] was > 100 µM and the GI50 [2] was > 100 µM. The TGI [2] was > 100 µM, the GI50 [3] was 16.8 µM and the TGI [3] was 59.7 µM. The GI50 [4] was > 100 µM, the TGI [4] was > 100 µM and the GI50 [5] was 36 µM. For the same molecule, the TGI [5] was > 100 µM, the GI50 [6] was 4.66 µM and the TGI [6] was 21.2 µM. It also gave a GI50 [7] of 7.09 µM, a TGI [7] of 40.7 µM and a GI50 [8] of 20.8 µM. The TGI [8] was > 100 µM, the GI50 [9] was 34.3 µM and the TGI [9] was > 100 µM. The GI50 [10] was > 100 µM, the TGI [10] was > 100 µM and the GI50 [11] was > 100000 nM. For the same molecule, the TGI [11] was > 100 µM, the GI50 [12] was > 100 µM and the TGI [12] was > 100 µM. For the same molecule, the GI50 [13] was > 100 µM, the TGI [13] was > 100 µM and the GI50 [14] was > 100000 nM. For the same molecule, the TGI [14] was > 100 µM, the GI50 [15] was 6.24 µM and the TGI [15] was 33.9 µM. For the same molecule, the GI50 [16] was 10.4 µM, the TGI [16] was 33.1 µM and the GI50 [17] was > 100 µM. The TGI [17] was > 100 µM, the GI50 [18] was > 100 µM and the TGI [18] was > 100 µM. The GI50 [19] was 42.5 µM, the TGI [19] was > 100 µM and the GI50 [20] was 16.9 µM. The TGI [20] was 61.8 µM, the GI50 [21] was 66.8 µM and the TGI [21] was > 100 µM. The GI50 [23] was 4.27 µM, the TGI [23] was > 100 µM and the GI50 [24] was > 100 µM. For the same molecule, the TGI [24] was > 100 µM, the GI50 [25] was 25.5 µM and the TGI [25] was > 100 µM. The GI50 [26] was 55.9 µM, the TGI [26] was > 100 µM and the GI50 [27] was 26.5 µM. For the same molecule, the TGI [27] was > 100 µM, the GI50 [28] was > 100 µM and the TGI [28] was > 100 µM. For the same molecule, the GI50 [55] was 6.06 µM, the TGI [55] was > 100 µM and the GI50 [29] was 21.3 µM. The TGI [29] was > 100 µM, the GI50 [31] was 20 µM and the TGI [31] was > 100 µM. For the same molecule, the GI50 [32] was > 100 µM, the TGI [32] was > 100 µM and the GI50 [33] was 28.8 µM. For the same molecule, the TGI [33] was 95.1 µM, the GI50 [34] was 28.5 µM and the TGI [34] was > 100 µM. For the same molecule, the GI50 [35] was 23 µM, the TGI [35] was > 100 µM and the GI50 [56] was 24.9 µM. For the same molecule, the TGI [56] was > 100 µM, the GI50 [36] was > 100000 nM and the TGI [36] was > 100 µM. For the same molecule, the GI50 [37] was 27.9 µM, the TGI [37] was 86.5 µM and the GI50 [38] was > 100 µM. For the same molecule, the TGI [38] was > 100 µM, the GI50 [39] was 21.7 µM and the TGI [39] was 62.8 µM. For the same molecule, the GI50 [40] was > 100000 nM, the TGI [40] was > 100 µM and the GI50 [57] was 48.8 µM. The TGI [57] was > 100 µM, the GI50 [41] was 19.5 µM and the TGI [41] was > 100 µM. For the same molecule, the GI50 [42] was > 100 µM, the TGI [42] was > 100 µM and the GI50 [58] was > 100 µM. For the same molecule, the TGI [58] was > 100 µM, the GI50 [43] was > 100 µM and the TGI [43] was > 100 µM. The GI50 [44] was 24.9 µM, the TGI [44] was > 100 µM and the GI50 [45] was 38.9 µM. The TGI [45] was > 100 µM, the GI50 [46] was 4970 nM and the TGI [46] was 27.7 µM. For the same molecule, the GI50 [47] was 2970 nM, the TGI [47] was > 100 µM and the GI50 [48] was > 100 µM. The TGI [48] was > 100 µM, the GI50 [49] was 3.97 µM and the TGI [49] was 40.7 µM. For the same molecule, the GI50 [50] was 17.2 µM, the TGI [50] was > 100 µM and the GI50 [53] was > 100 µM. For the same molecule, the TGI [53] was > 100 µM, the GI50 [54] was 94.3 µM and the TGI [54] was > 100 µM.
